# According to patent publication US8974768B2, “Azo compounds reducing formation and toxicity of amyloid beta aggregation intermediates” (Max-Delbrueck-Centrum fuer Molekulare Medizin, priority 2010, dated 2015):
# Legend:
# Aβ1-42 peptide = Aβ1-42 peptide (Homo sapiens, UniProt P05067); experiment: Thioflavin T (Thio T)-assay of Aβ aggregation; assay type: biochemical; conditions: 30 μM Aβ1-42 peptide, 48 h at 37° C., vs DMSO control; read-out: ThioT: IC50
# Tg2576 mice = experiment: Contextual fear conditioning in Tg2576 mice; assay type: in vivo, mouse; conditions: 9-month-old Tg2576 mice, feeding pellets for 12 weeks
# Experimental: Groups of Tg2576 mice overexpressing the 695-amino acid isoform of human amyloid precursor protein containing a Lys670→Asn, Met671→Leu mutation (Hsiao, K. Science 1996) and wildtype control mice (13-21 per phenotype) were conditioned on day 1 by placing a subject mouse in a contextual fear conditioning chamber (Med Associates, […], Vt.). Exploration was allowed for 2 min, and an auditory cue was presented for 15 s accompanied by an electrical foot shock during the last 2 s. This procedure was repeated and mice were removed from the chamber after 30 s. Twenty hours later, mice were returned to the chamber in which conditioning occured, and their freezing behaviour (fear) was monitored. Freezing was defined as the lack of all movements, except those required for breathing (Comery, T. A., et al. Journal of Neuroscience, 2005). Data were analysed by two-way ANOVA in the S programming environment, followed by Fischer's least significant difference (LSD) pairwise comparison of group means at the p<0.05 significance level.
# The contextual fear conditioning paradigm is a form of Pavlovian learning in which an association is made between stimuli and their aversive consequences. Studies of brain function implicate the amygdala in regulating fear, and the hippocampus in regulating the learning of the context in which a fearful event occurred.
# The brain circuitry in wild type mice is intact and they are better able to associate an aversive foot shock with the context or environment in which the shock took place. They therefore show more freezing. Transgenic Alzheimer mice have compromised brain circuitry due to the toxic effects of amyloid-beta protein. They are therefore less able to associate an aversive shock with a context and show less freezing.
# A substance that reverses the toxic effects of amyloid-beta in Alzheimer's mice will help in reconsolidating the impaired brain circuitry so that these mice begin to show more fear (freezing behavior) after treatment. This paradigm is therefore a robust method for showing the effect of drug candidate molecules in Alzheimer mice.
# 5XFAD mice = experiment: Nest building behaviour in 5XFAD mice; assay type: in vivo, mouse
# Experimental: 3a: Nestlet usage; 3b: Nestlet quality score.
# One hour before the dark phase, mice were housed individually in a cage with wood-chip bedding material. Each mouse was given 3 g of nestlet material made of compressed cotton (Lillico Biotech, UK). The amount of intact, i.e. non-used, nesting material was weighed after 16 hours and nest building was assessed using the following rating scale (Deacon et al., 2006, Tomida et al., 2009): 1, >90% intact; 2, 50-90% intact; 3, 10-50% intact: 4, 0-10% intact, but flat nest; 5, 0-10%, with nests higher than the mice. The amount of intact nesting material was weighed. The data were non-normally distributed.
# Non normally distributed data were analyzed by a Kruskal Wallis test. A post-hoc test using Mann-Whitney tests with Bonferroni corrections was then used for group comparisons.
# Nest building is one of several species-typical behavior in mice seen in semi-naturalistic situations. […] Alzheimer's disease in 5XFAD mice will damage these areas, leading to memory impairments in some standard cognitive tests, and to an impairment of species-typical behaviors like nesting.
# The brain circuitry of wild type mice is intact so they show robust nest building behavior. Transgenic 5XFAD on the other hand have impaired brain circuitry due to the noxious effects of human amyloid-beta protein. They are therefore less able to fulfill this important house-keeping species typical behavior (Deacon R M. (2006): Assessing nest building in mice. Nat Protoc. 2006; 1(3):1117-9; Tomida et al (2009): Usp46 is a quantitative trait gene regulating mouse immobile behavior in the tail suspension and forced swimming tests. Nat Genet. 2009 June; 41(6):688-95. Epub 2009 May 24.).
# in vitro = conditions: human
# [1] = Detection of compounds in brain after in vivo administration
# [2] = transgenic and wild-type mice vs control mice
# Sequence of Aβ1-42 peptide (P05067 672-713): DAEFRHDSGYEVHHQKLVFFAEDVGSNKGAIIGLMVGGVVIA
smiles,measurement,setting,value
"O=[N+]([O-])c1ccc(N=Nc2ccc(Nc3ccccc3)cc2)cc1 [Compound 2, 4-((4-nitrophenyl)diazenyl)-N-phenylaniline]",IC50,Aβ1-42 peptide,1700 nM
same,Contextual memory (freezing behaviour),Tg2576 mice,improvement
same,Nest building behavior,"5XFAD mice; 5XFAD mice, pelleted mouse chow for 8.5 months",improved
same,Nest building behavior in transgenic mice,"5XFAD mice; transgenic 5XFAD mice, higher concentration (625 mg/kg feed) vs control mice",significantly enhanced
same,"Nest building behavior (nestlet usage, FIG. 3a)",5XFAD mice; [2],increased
same,Nestlet quality score (FIG. 3b),5XFAD mice; [2],increases
same,IC50 at 48 h,in vitro,> 100000 nM
same,Detection in brain after i.v. administration,"[1]; B6C3 mouse, 5 mg/kg body weight i.v. once, brain samples",++
same,"Detection in brain after oral administration, feeding pellet preparation","[1]; mouse, brain samples after one week feeding","++^a), b)"
same,"Detection in brain after oral administration, oral gavage administration","[1]; mouse, five to seven doses over two or three days, sampling 30 min. after last application","++^a), b)"
